The target in data set [1] is T1, mineralocorticoid receptor (MR) (Homo sapiens, UniProt P08235).
T1 construct: expressed in transfected cells
T1 sequence (P08235 726-964 limits assumed): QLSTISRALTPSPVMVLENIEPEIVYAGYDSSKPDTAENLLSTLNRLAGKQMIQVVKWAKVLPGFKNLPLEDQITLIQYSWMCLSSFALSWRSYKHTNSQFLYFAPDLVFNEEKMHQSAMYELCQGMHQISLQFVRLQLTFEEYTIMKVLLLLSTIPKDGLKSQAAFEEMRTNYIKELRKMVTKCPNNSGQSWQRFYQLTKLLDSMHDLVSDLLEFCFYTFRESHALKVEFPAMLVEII
In words: MR Gal4-LBD luciferase reporter gene assay in HEK293T cells (antagonism of 0.8 nM aldosterone). It is filed as cell-based. An excerpt:
By the characteristic of chemiluminescence reaction produced by combination of luciferase and substrate, a Gal4 DNA binding domain (DBD) fused plasmid containing a mineralocorticoid receptor (MR) ligand binding domain (LBD) and a firefly luciferase reporter gene plasmid under the control of Gal4 UAS (upstream activation sequence) were transfected into human embryonic kidney cells (HEK293). Changes of […] were judged by a level of firefly luciferase activity.
All compounds were dissolved in DMSO to prepare a 25 mM stock solution, and stored in a refrigerator at −20° C.
• 1) A compound to be tested was subjected to 3-times gradient dilution with the DMSO, with 10 concentration gradients and an initial concentration of 10 mM. • 2) A positive compound (Finerenone) was subjected to 3-times gradient dilution with the DMSO, with 10 concentration gradients and an initial concentration of 1 mM. • 3) 1000× positive control (1 mM, Finerenone) and 1000× negative control (100% DMSO) were prepared. • 4) A compound plate was sealed and shaken for 5 minutes.
• 5) All cells were cultured by ATCC standard operation, and HEK293T was experimented in an exponential growth phase. • 6) A culture medium supernatant was gently discarded. The cells were washed with PBS twice.
(3) The cells were digested with pancreatin digestive juice, the digestion was stopped with a complete culture solution, and then the cells were collected and counted.
(4) 6×10^6 HEK293T cells were inoculated into a 100 mm cell culture dish.
(5) The culture dish inoculated with the cells was cultured in a 5% CO2 incubator at 37° C. for 16 hours overnight.
• 1) Lipofectamine® 3000&P3000 transfection reagents were placed at room temperature. • 2) The Lipofectamine® 3000 reagent was added into an Opti-MEM™ culture medium, and meanwhile, the P3000, the plasmid and the Opti-MEM™ culture medium were added into another tube, taking care not to touch the tube wall. • 3) The mixture was mixed evenly by a pipette, and allowed to stand at room temperature for 5 minutes. • 4) The plasmid was added into the diluted transfection reagent, mixed evenly by a pipette, and allowed to stand at room temperature for 20 minutes. • 5) The transfection reagent mixed with the plasmid was added into a […] cell culture dish. • 6) The culture dish was cultured in a 5% CO2 incubator at 37° C. for 5 hours to 6 hours.
• 1) 25 nL of diluted compound was transferred to a cell culture plate with Echo655. • 2) The cells (referring to step 1.3) were inoculated into a 384 cell culture plate, with 17,000 cells, 25 μL of phenol red-free DMEM culture medium containing 5% CFBS and 0.8 nM Aldosteron per well.
(3) The cell culture plate was cultured in a 5% CO2 incubator at 37° C. for 18 hours to 20 hours overnight.
• 1) A Britelite plus detection reagent was placed at room temperature. 2) The 384 cell plate was placed at room temperature. • 3) 25 μL of Britelite plus detection reagent was added into each well of the cell culture plate. • 4) A luminescence was detected with Envision.
• 1) a firefly luciferase signal was obtained by reading the Luminescence to calculate an inhibition rate; • 2) % inhibition rate=100−[(RLU compound−avgRLU positive control)/(RLU negative control−avgRLU positive control)×100%, wherein the avgRLU positive control was an average value of Luminescences of all positive control wells in the whole plate; the avgRLU negative control was an average value of Luminescences of all negative control wells in the whole plate; and the RLU compound was Luminescence values of compounds to be tested with different concentrations; and • 3) IC50 of the compound was calculated by Graphpad8.0 Drawing software.
In general terms: Reporter assays use an easily measured gene product as a stand-in for the process of interest.

Data set [2] can be described thus: Tissue distribution, AUC ratio of heart to kidney. Type of data set: in vivo. The following applies: compared with Finerenone.

As a reminder, the IC50 is the concentration that gives 50% inhibition.

Consider `CCOc1ncc(C)c2c1[C@H](c1ccc(C#N)c3c1OCC3)C(C(N)=O)=C(C)N2` [Example 36, (S)-4-(4-cyano-2,3-dihydrobenzofuran-7-yl)-5-ethoxy-2,8-dimethyl-1,4-dihydro-1,6-naphthyridine-3-formamide], for which the IC50 in data set [1] worked out at 11.5 nM. Moreover, in data set [2], the “AUC (tissue distribution) ratio of heart to kidney” value is listed as “lower”.

In the case of `CCOc1ncc(C)c2c1[C@H](c1ccc(C#N)c3c1OCO3)C(C(N)=O)=C(C)N2` [Example 62, (S)-4-(7-cyanobenzo[d][1,3]dioxol-4-yl)-5-ethoxy-2,8-dimethyl-1,4-dihydro-1,6-naphthyridine-3-formamide], the IC50 in data set [1] was determined as 14.8 nM.
